Test results: US20220041578A1, “ISOINDOLINE COMPOUND, AND PREPARATION METHOD, PHARMACEUTICAL COMPOSITION, AND APPLICATION OF ISOINDOLINE COMPOUND” (Shanghai Institute of Meteria Medica, Chinese Academy of …, priority 2018, published 2022)
pIC50: −log10 of the molar value.

What follows are compounds tested on MM.1S cells (assay: Effect of the compound on the proliferation of MM.1S cells (MTS)). Details: Homo sapiens, MM1.S, 168 h, 7 days, read-out: Cell inhibitory activity (IC50).
Type: cell-based
Description: MM.1S cells were cultured with 1640 plus 10% fetal bovine serum and collected. The cell concentration was diluted according to the action time of 7 days, and 180 ul cell suspension was added to each well of the 96-well cell plate to make the cell count to be 20,000. 20 ul of DMSO with a final concentration of 0.2% was added to the control cell wells. The compound was diluted 5-fold with the 10 mM stock solution, and 20 ul was also added to the compound cell wells (the final concentration of DMSO is 0.2%). The cells were placed in a 37° C., 5% CO2 incubator and incubated for 7 days. After preparing the reaction solution according to the MTS kit (Promega, G5430), 20 μL was added to each well, incubated in a 37° C., 5% CO2 incubator for 3-4 h. Read the 490 nm absorbance value with a microtiter plate, and used the 690 nm absorbance value as the background value and OD490-OD690 as the final initial data. The formula for calculating the inhibition rate of the compound is: inhibition rate=(OD DMSO-ODcompound)/(ODDMSO-Oblank)×100%. The compound's proliferation inhibition IC50 was fitted by Graph Pad Prism 5.0. The experiment was repeated three times, and three parallel experiments were used to calculate the average and standard deviation each time.
With `O=C1CCC(N2Cc3c(OCc4cn(Cc5cccc(N6CCOCC6)c5)nn4)cccc3C2=O)C(=O)N1` (centres unmarked) [Compound 7, 3-(4-((1-(3-morpholinbenzyl)-1H-1,2,3-triazol-4-)methoxy)-1-oxoisoindolin-2-) piperidine-2,6-dione] the pIC50 was > 6.82. With `O=C1CCC(N2Cc3c(OCCC4CCN(c5ccnc6ccccc56)CC4)cccc3C2=O)C(=O)N1` (centres unmarked) [Compound 68, 3-(1-oxo-4-(2-(1-(quinolin-4-)piperidin-4-)ethoxy)isoindolin-2-) piperidin-2,6-dione] the pIC50 was > 6.82. In the case of `CN(C)c1cccc(Cn2cc(COc3cccc4c3CN(C3CCC(=O)NC3=O)C4=O)nn2)c1` (centres unmarked) [Compound 9], the pIC50 was > 6.82. `O=C1CCC(N2Cc3c(OCc4cn(Cc5ccc(CN6CCOCC6)cc5)nn4)cccc3C2=O)C(=O)N1` (centres unmarked) [Compound 12, 3-(4-((1-(4-(morpholinomethyl)benzyl)-1H-1,2,3-triazol-4-)methoxy)-1-oxoisoindolin-2-) piperidine-2,6-dione] was tested, and the pIC50 was > 6.82. For `Cc1cc(COc2cccc3c2CN(C2CCC(=O)NC2=O)C3=O)nn1-c1c(Cl)cc(OC(F)(F)F)cc1Cl` (centres unmarked) [Compound 85, 3-(4-((1-(2,6-dichloro-4-(trifluoromethoxy)phenyl)-5-methyl-1H-pyrazol-3-yl)methoxy)-1-isoindolin-2-yl)piperidine-2,6-dione], the pIC50 was > 6.82. With `CN(C)C[C@H](Cc1ccccc1)n1cc(COc2cccc3c2CN(C2CCC(=O)NC2=O)C3=O)nn1` (some centres unmarked) [Compound 56] the pIC50 was > 6.82. With `C[C@]12CC3CC(n4cc(COc5cccc6c5CN(C5CCC(=O)NC5=O)C6=O)nn4)(C1)C[C@@](C)(C3)C2` (stereo partly drawn) [Compound 89, 3-(4-((1-((1R, 3R, 5S, 7R)-3,5-dimethyladamantin-1-yl)-1H-1,2,3-triazol-4-yl)methoxy)-1-isoindolin-2-yl) piperidin-2,6-dione] the pIC50 was < 4.70. With `O=C1CCC(N2Cc3c(OCC4CCN(c5ccnc6ccccc56)CC4)cccc3C2=O)C(=O)N1` (centres unmarked) [Compound 67, 3-(1-oxo-4-((1-(quinolin-4-)piperidin-4-)methoxy)isoindolin-2-) piperidin-2,6-dione] the pIC50 was > 6.82. With `O=C1CCC(N2Cc3c(OCc4cn(CC5CCOCC5)nn4)cccc3C2=O)C(=O)N1` (centres unmarked) [Compound 48, 3-(1-oxo-4-((1-((tetrahydro-2H-pyran-4-)methyl)-1H-1,2,3-triazol-4-)methoxy)isoindolin-2-) piperidine-2,6-dione] the pIC50 was 4.70 to 6.82. For `O=C1CCC(N2Cc3c(OCc4cn(Cc5ccncc5)nn4)cccc3C2=O)C(=O)N1` (centres unmarked) [Compound 2], the pIC50 was 4.70 to 6.82. In the case of `O=C1CCC(N2Cc3c(OCc4cnc(-c5ncc(C(F)(F)F)s5)s4)cccc3C2=O)C(=O)N1` (centres unmarked) [Compound 47], the pIC50 was > 6.82. For `O=C1CCC(N2Cc3c(OCc4cn(Cc5cccc(C(F)(F)F)c5)nn4)cccc3C2=O)C(=O)N1` (centres unmarked) [Compound 6, 3-(1-oxo-4-((1-(3-(trifluoromethyl)benzyl)-1H-1,2,3-triazol-4-)methoxy)isoindolin-2-) piperidine-2,6-dione], the pIC50 was > 6.82. For `O=C1CCC(N2Cc3c(OC[C@@H]4CCN(c5ccnc6ccccc56)C4)cccc3C2=O)C(=O)N1` (stereo partly drawn) [Compound 66, 3-(1-oxo-4-(((R)-1-(quinolin-4-)pyrrolin-3-)methoxy)isoindolin-2-) piperidine-2,6-dione], the pIC50 was 4.70 to 6.82. In the case of `O=C1CCC(N2Cc3c(OCc4cn(-c5ccc(OC6CC6)cc5)nn4)cccc3C2=O)C(=O)N1` (centres unmarked) [Compound 32], the pIC50 was > 6.82. `O=C1CCC(N2Cc3c(OCC4CCC(c5ccc(OC(F)(F)F)cc5)CC4)cccc3C2=O)C(=O)N1` (centres unmarked) [Compound 72, 3-(1-oxo-4-((4-(4-(trifluoromethoxy)phenyl)cyclohexyl)methoxy)isoindolin-2-) piperidine-2,6-dione] was tested, and the pIC50 was > 6.82. `O=C1CCC(N2Cc3c(OCc4cn(Cc5cccc(-n6ccnc6)c5)nn4)cccc3C2=O)C(=O)N1` (centres unmarked) [Compound 14, 3-(4-((1-(3-(1H-imidazol-1-)benzyl)-1H-1,2,3-triazol-4-)methoxy)-1-oxoisoindolin-2-) piperidine-2,6-dione] was tested, and the pIC50 was > 6.82. In the case of `O=C1CCC(N2Cc3c(OCc4cn([C@H](CO)Cc5ccccc5)nn4)cccc3C2=O)C(=O)N1` (some centres unmarked) [Compound 54], the pIC50 was 4.70 to 6.82. `COc1cccc(Cn2cc(COc3cccc4c3CN(C3CCC(=O)NC3=O)C4=O)nn2)c1` (centres unmarked) [Compound 5] was tested, and the pIC50 was > 6.82. In the case of `COCCn1ccc2cc(-n3cc(COc4cccc5c4C(=O)N([C@@]4(C)CCC(=O)NC4=O)C5=O)nn3)ccc21` [Compound 37, (S)-4-((1-(1-(2-methoxyethyl)-1H-indole-5-)-1H-1,2,3-triazol-4-)methoxy)-2-(3-methyl-2,6-dioxopiperidine-3-) isoindolin-1,3-dione], the pIC50 was 4.70 to 6.82. With `[2H]c1c([2H])c([2H])c(-n2cc(COc3cccc4c3CN(C3CCC(=O)NC3=O)C4=O)nn2)c([2H])c1[2H]` (centres unmarked) [Compound 78, 3-(1-oxo-4-((1-(phenyl-D5)-1H-1,2,3-triazol-4-yl)methoxy)isoindolin-2-yl) piperidine-2,6-dione] the pIC50 was > 6.82. `O=C1CCC(N2C(=O)c3cccc(OCc4cn(-c5ccc(OC(F)(F)F)cc5)nn4)c3C2=O)C(=O)N1` (centres unmarked) [Compound 38, 2-(2,6-dioxopiperidine-3-)-4-((1-(4-trifluoromethoxyphenyl)-1H-1,2,3-triazol-4-)methoxy) isoindolin-1,3-dione] showed a pIC50 of 4.70 to 6.82. For `O=C1CCC(N2Cc3c(NCc4cnc(-c5ccc(OC(F)(F)F)cc5)o4)cccc3C2=O)C(=O)N1` (centres unmarked) [Compound 82], the pIC50 was > 6.82. With `O=C1CCC(N2Cc3c(OCc4cn(-c5cccc(N6CCOCC6)c5)nn4)cccc3C2=O)C(=O)N1` (centres unmarked) [Compound 22, 3-(4-((1-(3-morpholinophenyl)-1H-1,2,3-triazol-4-)methoxy)-1-oxoisoindolin-2-) piperidine-2,6-dione] the pIC50 was > 6.82. For `O=C1CCC(N2Cc3c(OCc4cn(Cc5ccc(N6CCOCC6)cc5)nn4)cccc3C2=O)C(=O)N1` (centres unmarked) [Compound 8, 3-(4-((1-(4-morpholinbenzyl)-1H-1,2,3-triazol-4-)methoxy)-1-oxoisoindolin-2-) piperidine-2,6-dione], the pIC50 was > 6.82. `O=C1CCC(N2Cc3c(OCc4cn(C56CC7CC(CC(O)(C7)C5)C6)nn4)cccc3C2=O)C(=O)N1` [Compound 86, 3-(4-((1-((1R, 3S, 5R, 7S)-3-hydroxyadamantan-1-yl)-1H-1,2,3-triazol-4-yl)methoxy)-1-isoindolin-pyridin-2-yl) piperidin-2,6-dione] was tested, and the pIC50 was < 4.70. With `O=C1CCC(N2Cc3c(NCc4cnc(-c5ccccc5OC(F)(F)F)o4)cccc3C2=O)C(=O)N1` (centres unmarked) [Compound 94] the pIC50 was 4.70 to 6.82. `O=C1CCC(N2Cc3c(OCc4cn(Cc5cccnc5)nn4)cccc3C2=O)C(=O)N1` (centres unmarked) [Compound 3] was tested, and the pIC50 was 4.70 to 6.82. In the case of `[2H]c1c([2H])c([2H])c(-n2cc(COc3cc(F)cc4c3CN(C3CCC(=O)NC3=O)C4=O)nn2)c([2H])c1[2H]` (centres unmarked) [Compound 79, 3-(6-fluoro-1-oxo-4-((1-(phenyl-D5)-1H-1,2,3-triazol-4-yl)methoxy)isoindolin-2-yl) piperidine-2,6-dione], the pIC50 was > 6.82. For `O=C1CCC(N2Cc3c(CCc4cnc(-c5ccc(OC(F)(F)F)cc5)o4)cccc3C2=O)C(=O)N1` (centres unmarked) [Compound 62, 3-(1-oxo-4-(2-(2-(4-(trifluoromethoxy)phenyl)oxazol-5-yl)ethyl)isoindolin-2-yl) piperidine-2,6-dione], the pIC50 was > 6.82. `COC(=O)c1cccc(Cn2cc(COc3cccc4c3CN(C3CCC(=O)NC3=O)C4=O)nn2)c1` (centres unmarked) [Compound 10, Methyl 3-((4-(((2-(2,6-dioxopiperidin-3-)-1-oxoisoindolin-4-)oxo)methyl)-1H-1,2,3-triazol-1-)methyl) benzoate] was tested, and the pIC50 was > 6.82. With `O=C1CCC(N2Cc3c(OCc4cn(-c5ccc(O)cc5)nn4)cccc3C2=O)C(=O)N1` (centres unmarked) [Compound 21, 3-(4-((1-(4-hydroxyphenyl)-1H-1,2,3-triazol-4-)methoxy)-1-oxoisoindolin-2-) piperidine-2,6-dione] the pIC50 was > 6.82. For `Cc1c(COc2cccc3c2CN(C2CCC(=O)NC2=O)C3=O)cnn1-c1c(Cl)cc(C(F)(F)F)cc1Cl` (centres unmarked) [Compound 83], the pIC50 was > 6.82. With `O=C1CCC(N2Cc3c(OCC4CCN(c5ccc(OC(F)(F)F)cc5)CC4)cccc3C2=O)C(=O)N1` (centres unmarked) [Compound 73, 3-(1-oxo-4-((1-(4-(trifluoromethoxy)phenyl)piperidin-4-)methoxy)isoindolin-2-) piperidin-2,6-dione] the pIC50 was > 6.82. For `CC(n1cc(COc2cccc3c2CN(C2CCC(=O)NC2=O)C3=O)nn1)C12CC3CC(CC(C3)C1)C2` [Compound 88, 3-(4-((1-(1-((1S, 3S)-adamantan-1-yl)ethyl)-1H-1,2,3-triazol-4-yl)methoxy)-1-isoindolin-2-yl) piperidin-2,-6-dione], the pIC50 was > 6.82. `O=C1CCC(N2Cc3c(OCc4cn(Cc5ccnc6ccccc56)nn4)cccc3C2=O)C(=O)N1` (centres unmarked) [Compound 4] was tested, and the pIC50 was > 6.82. For `O=C1CCC(N2Cc3c(OCc4cn(-c5ccc(OC6CC6)cc5F)nn4)cccc3C2=O)C(=O)N1` (centres unmarked) [Compound 92, 3-(4-((1-(4-cyclopropoxy-2-fluorophenyl)-1H-1,2,3-triazol-4-yl)methoxy)-1-oxoisoindol-2-yl) piperidine-2,6-dione], the pIC50 was 4.70 to 6.82. In the case of `O=C1CCC(N2Cc3c(OCc4cn(Cc5ccccc5)nn4)cccc3C2=O)C(=O)N1` (centres unmarked) [Compound 1], the pIC50 was > 6.82. Work on `O=C1CCC(N2Cc3c(OCc4cn(Cc5ccc6[nH]cnc6c5)nn4)cccc3C2=O)C(=O)N1` (centres unmarked) [Compound 13] yielded a pIC50 of 4.70 to 6.82.
